Source: patent publication US8642008B2, “Molecular probe for imaging of pancreatic islets and use of the same” (priority 2009, dated 2014)

Legend:
pancreatic islets = settings: cited from earlier work
[1] = tested on: GLP-1R-positive tumor cells; settings: cited from earlier work
[2] = mouse, iv
Procedure: (§1) At points of 5 minutes, 15 minutes, 30 minutes, 60 minutes, and 120 minutes after the administration, organs were dissected out of the mice, respectively (n=5). The weight and the radioactivity of each organ were determined, and an accumulation amount (% dose/g) of the molecular probe was calculated from the radioactivity per unit weight. […] FIG. 1A is a graph showing how the accumulation of the molecular probe in each organ varied with time, and FIG. 1B is a graph of an enlarged part of FIG. 1A.
1, biodistribution of the same in a mouse was determined. […] The determination of biodistribution was carried out in the same manner as that in Example 1.
as §1, with “5A” for “1A”, “5B” for “1B”, “5A.” for “FIG. 1A.”

pancreatic β-cells = experiment: Two-dimensional imaging analysis of pancreas sections of MIP-GFP mice (fluorescence and autoradiography); format: in vivo, mouse
Procedure: Two-dimensional imaging analysis was performed using transgenic mice that have a genetic background of C57BL/6 mice and express GFP (green fluorescent protein) under regulation of MIP (mouse insulin I gene promoter) (hereinafter these mice are referred to as “MIP-GFP mice”). […] Sections were cut out of the dissected pancreases, and each section was placed on a slide glass, covered with a cover glass. Fluorescence and radioactivity (autoradiography) of each section were determined using an image analyzer (trade name: Typhoon 9410, produced by GE Health Care Inc.) (exposure time: 14 hours).
Sections were cut out of the dissected pancreases, and fluorescence and radioactivity of each section were determined in the same manner as described above.
DPP (dipeptidyl peptidase) IV inhibitor (0.1 mL of 6 mg/mL solution) was administered by intravenous injection to unanesthetized MIP-GFP mice (male, weight: 20 g), and these mice were used as controls 1-2. […] Sections were cut out of the dissected pancreases, and fluorescence and radioactivity of each section were determined in the same manner as described above. […]
Sections were cut out of the dissected pancreases, and fluorescence and radioactivity of each section thus obtained were determined in the same manner as described above.

Row | Substance | uptake in pancreatic islets (pancreatic islets) | uptake in the GLP-1R-positive tumor cells [1] | accumulation amount in the pancreas, times as much as that in the intestine ([2]; in vivo) | accumulation amount in the pancreas, times as much as that in the stomach ([2]; in vivo) | change with time of accumulation in the thyroid gland (deiodization metabolism in vivo) [2] | localization of the radioactivity signal versus GFP signal in pancreas sections (pancreatic β-cells; 30 and 60 minutes after administration) | radioactivity signal of pancreas sections after preliminary administration of cold probe exendin(9-39) (pancreatic β-cells; 30 minutes after probe)
1 | Lys^40(Ahx-DTPA-^111In)Exendin-(9-39) | about 0.4% | about 7.5% |  |  |  |  | 
2 | formula (35): exendin(9-39) sequence, α-amino group at N-terminus labeled with [125I] 3-iodobenzoyl group, C-terminus amidated |  |  | not less than 11 times | not less than 3 times | no great change | consistent with that of the GFP signal | substantially no radioactivity signal was detected
